Laboratory results published in US20230266307A1, “BIOINFORMATICS” (University of Helsinki, priority 2020, published 2023).
No end group written: not given here.

Legend:
[1] = tested on: ccRCC PDO; assay: killing assay with peptide-pulsed CD8+ T cells on ccRCC patient-derived organoids; type: cell-based, human
Description: We focused our analysis on ccRCC samples. We used transcriptomics levels to select putative tumour antigens using PBMC and healthy kidney tissue as reference sets. Next, PBMCs from healthy volunteers were pulsed with the selected peptides, and CD8+ T cells isolated from those cells were used in the assay.
Finally, we sought to investigate the recall T cells response in the ccRCC patient. To this end, unfractionated PBMCs derived from the patient were in vitro stimulated with the peptide EVAQPGPSNR whereas unstimulated PBMCs were adopted as control. The derived CD8+T cells were then added to the ccRCC PDO showing about a 7% increase in killing activity compared to the control group.

[2] = tested on: JY cells; assay: in vitro killing assay, real time cytolysis of JY cells by peptide-pulsed CD8+ T cells; type: cell-based, human; details: for specific cytolysis: CD8+ T cells from HLA-matched PBMCs pulsed with the peptide, coculture with JY cells
Protocol: Next, in order to determine the role of the peptides identified, a gene ontology (GO) term enrichment analysis was performed on our list of 9mer binder source proteins. We observed an enrichment in nuclear and intracellular proteins, mainly those interacting with DNA, RNA or involved in catabolic activity. […] To account for nonspecific cytotoxicity due to the effector cells per se, unstimulated PBMCs were used as a control. Real time cytolysis was then monitored.

[3] = tested on: B16-OVA cells; assay: intratumoral PeptiCRAd treatment of established B16-OVA tumors; type: in vivo, C57BL/6J mice; details: B16OVA
Protocol: (§1) A: Scheme of the animal experiment: 4 groups of C57BL mice were formed for each tumor cell line to be tested. Mice were subcutaneously injected either with B16-OVA or B16F10 cells at day 0. Once the tumor was palpable, mice were treated with saline solution (Mock group), uncoated adenovirus (Uncoated Virus group), adenovirus coated with pool of viral peptides homologous to TRP2 (Viral PeptiCRAd, VPC) or adenovirus coated with TRP2 peptide (TRP2 PeptiCRAd, TPC).
(§2) All PeptiCRAd complexes described in this work were prepared by mixing Adenoviruses and polyK-tailed peptides according to the following protocol: 1×10^9 vp(viral particles) were mixed with 20 ug poly-K tailed peptides (resuspended in water); after vortexing, the mixture was incubated at room temperature for 15 min; PBS was added, after the incubation, up to the injection volume (50 uL/mouse), successively, the solution was vortexed again and used for assays or animal injections. For the TRP2-PeptiCRAd, 1×10^9 vp were mixed with 20ug of 6K-TRP2180-188 peptide, while the Viral-PeptiCRAd was prepared using 1×10^9 vp mixed with 5 ug of each viral 6K-peptide homologous for […]. […]
(§3) Tumor growth was followed with a digital caliper measuring two dimensions of the tumor. Successively, the volume was mathematically calculated according to the following formula: […]

[4] = tested on: B16F10 cells; assay: intratumoral PeptiCRAd treatment of established B16F10 tumors; type: in vivo, C57BL/6J mice
Protocol: as §1, §2, §3

[5] = biological target: HLA-I complexes of the human B-cell lymphoblastoid cell line JY (human); assay: cell-based or functional assay

With “EVAQPGPSNR (HSPG2 gene) [peptide from ccRCC organoids, gene name HSPG2]” the specific cytolysis ([1]; CD8+ T cells from PBMCs of healthy volunteers pulsed with the peptide, ccRCC samples) was “about 10%” and the “increase in killing activity compared to the control group” value ([1]; CD8+ T cells from the ccRCC patient's PBMCs stimulated with the peptide, added to ccRCC PDO, control unstimulated PBMCs) was ~7%.

“ILDKKVEKV [HLA-I peptide from JY cells, gene name HSP90AB3P]” was tested, and the specific cytolysis [2] was 15% and the “specific cytolysis, comparison among the tested peptides” value ([2]; JY cells, CD8+ T cell-dependent killing) was “higher percentage of specific cytolysis”.

“KVLEYVIKV [HLA-I peptide from JY cells, gene name MAGEA1]” was tested, and the specific cytolysis [2] was “about 10%”.

“QLVDIIEKV [HLA-I peptide from JY cells, gene name PSME3]” was tested, and the specific cytolysis [2] was “about 10%”.

For “TRP2-PeptiCRAd: adenovirus coated with 6K-TRP2180-188 peptide (KKKKKKSVYDFFVWL; also: coated on adenovirus; UniProt P29812 180-188, looked up, fragment)”, the tumor progression ([3]; intratumoral, compared to saline buffer or uncoated virus) was “significantly reduced the tumor progression”, the number of responders ([3]; tumor volume below the median at endpoint) was “significantly higher number of responders” and the tumor progression ([4]; B16F10, intratumoral, compared to saline buffer or uncoated virus) was “significantly reduced the tumor progression”. The number of responders ([4]; B16F10, tumor volume below the median at endpoint) was “significantly higher number of responders”.

ILDKKVEKV [… (gene name HSP90AB3P)] was tested, and the specific cytolysis of JY cells by CD8+ T cells pulsed with the peptide [5] was 15%.

QLVDIIEKV (not fully specified) [… (gene name PSME3)] showed a specific cytolysis of JY cells by CD8+ T cells pulsed with the peptide [5] of 10%.

Work on KVLEYVIKV [… (gene name MAGEA1)] yielded a specific cytolysis of JY cells by CD8+ T cells pulsed with the peptide [5] of 10%.
